Data taken from ChEMBL document CHEMBL3244025, “Carbocyclic arabinosyladenine, an adenosine deaminase resistant antiviral agent” (J Med Chem, 1977).

Test system: Vaccinia virus
Test: Antiviral activity against Vaccinia virus Lederle Chorioallantoic infected in human Hep2 cells assessed as inhibition of virus-induced cytopathogenic effect
Assay type: functional, Orthopoxvirus vaccinia, HEp-2

Nc1ncnc2c1ncn2[C@@H]1C[C@H](CO)[C@@H](O)[C@@H]1O (racemic)
MED50: 9 µg/mL
